#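 Five concentrations, 48 hours, 96-well plates. TGI is the concentration that stops growth completely.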
# Legend:
# Assay in all cases: NCI anticancer screen, dose series, 48 h
# [1] = test system: RXF 393 renal
# [2] = test system: NCI-H23 lung
# [3] = test system: MCF7 breast
# [4] = test system: M14 melanoma
# [5] = test system: MDA-N
# [6] = test system: SN12C renal
# [7] = test system: MDA-MB-231 breast
# [8] = test system: DU-145 prostate
# [9] = test system: KM12 colon
# [10] = test system: K-562 leukemia
# [11] = test system: A549 NSCLC
# [12] = test system: IGROV1 ovarian
# [13] = test system: T-47D breast
# [14] = test system: HL-60(TB) leukemia
# [15] = test system: MALME-3M melanoma
# [16] = test system: CCRF-CEM leukemia
# [17] = test system: TK-10 renal
# [18] = test system: OVCAR-8 ovarian
# [19] = test system: 786-0 renal
# [20] = test system: SF-295 CNS
# [21] = test system: SF-268 CNS
# [22] = test system: HT29 colon
# [23] = test system: HCT-15 colon
# [24] = test system: SR leukemia
# [25] = test system: EKVX NSCLC
# [26] = test system: UACC-257 melanoma
# [27] = test system: SK-OV-3 ovarian
# [28] = test system: UACC-62 melanoma
# [29] = test system: SK-MEL-5 melanoma
# [30] = test system: PC-3 prostate
# [31] = test system: SW-620 colon
# [32] = test system: RPMI-8226 leukemia
# [33] = test system: LOX IMVI melanoma
# [34] = test system: CAKI-1 renal
# [35] = test system: HCC-2998 colon
# [36] = test system: SK-MEL-28 melanoma
# [37] = test system: HOP-62 NSCLC
# [38] = test system: MOLT-4 leukemia
# [39] = test system: SNB-75 CNS
# [40] = test system: SK-MEL-2 melanoma
# [41] = test system: SF-539 CNS
# [42] = test system: MDA-MB-435
# [43] = test system: NCI-H226 lung
# [44] = test system: SNB-19 CNS
# [45] = test system: COLO 205 colon
# [46] = test system: OVCAR-4 ovarian
# [47] = test system: NCI/ADR-RES ovarian
# [48] = test system: BT-549 breast
# [49] = test system: NCI-H522 lung
# [50] = test system: OVCAR-5 ovarian
# [51] = test system: HCT-116 colon
# [52] = test system: ACHN renal
# [53] = test system: NCI-H460 lung
# [54] = test system: OVCAR-3 ovarian
# [55] = test system: HOP-92 NSCLC
# [56] = test system: UO-31 renal
# [57] = test system: A498 renal
# [58] = test system: U251 CNS
# [59] = test system: HS 578T breast
structure (smiles),measurement,setting,value
CC(C)(Oc1ccc2c(=O)cc(-c3ccccc3)oc2c1)C(=O)N1CCN(c2ccccc2)CC1,TGI,[1],6.73 µM
same,TGI,[2],> 10 µM
same,TGI,[3],> 10 µM
same,TGI,[4],> 10 µM
same,TGI,[5],> 10 µM
same,TGI,[6],> 10 µM
same,TGI,[7],> 10 µM
same,TGI,[8],> 10 µM
same,TGI,[9],> 10 µM
same,TGI,[10],> 10 µM
same,TGI,[11],> 10 µM
same,TGI,[12],> 10 µM
same,TGI,[13],> 10 µM
same,TGI,[14],4.38 µM
same,TGI,[15],> 10 µM
same,TGI,[16],> 10 µM
same,TGI,[17],> 10 µM
same,TGI,[18],> 10 µM
same,TGI,[19],> 10 µM
same,TGI,[20],> 10 µM
same,TGI,[21],> 10 µM
same,TGI,[22],> 10 µM
same,TGI,[23],> 10 µM
same,TGI,[24],> 10 µM
same,TGI,[25],> 10 µM
same,TGI,[26],> 10 µM
same,TGI,[27],> 10 µM
same,TGI,[28],> 10 µM
same,TGI,[29],> 10 µM
same,TGI,[30],> 10 µM
same,TGI,[31],> 10 µM
same,TGI,[32],> 10 µM
same,TGI,[33],> 10 µM
same,TGI,[34],> 10 µM
same,TGI,[35],> 10 µM
same,TGI,[36],> 10 µM
same,TGI,[37],> 10 µM
same,TGI,[38],> 10 µM
same,TGI,[39],> 10 µM
C=C(CCC/C(C)=C/C=C/[C@H](C)CCCc1ccoc1)C[C@@H]1OC(=O)[C@H](C)[C@@H]1O,TGI,[1],14.2 µM
same,TGI,[2],18.2 µM
same,TGI,[40],17.8 µM
same,TGI,[3],33.9 µM
same,TGI,[4],19.4 µM
same,TGI,[5],20.5 µM
same,TGI,[6],17.7 µM
same,TGI,[7],19.4 µM
same,TGI,[8],19 µM
same,TGI,[41],19.2 µM
same,TGI,[42],18.5 µM
same,TGI,[9],23.3 µM
same,TGI,[10],28.6 µM
same,TGI,[43],16.6 µM
same,TGI,[11],15.2 µM
same,TGI,[12],24.6 µM
same,TGI,[44],17.1 µM
same,TGI,[45],27.4 µM
same,TGI,[46],13.1 µM
same,TGI,[13],17.6 µM
same,TGI,[47],22.5 µM
same,TGI,[48],16.9 µM
same,TGI,[15],19.8 µM
same,TGI,[16],33.6 µM
same,TGI,[17],22.2 µM
same,TGI,[49],18.8 µM
same,TGI,[50],23.8 µM
same,TGI,[18],27.5 µM
same,TGI,[19],27.4 µM
same,TGI,[51],42.4 µM
same,TGI,[20],22.9 µM
same,TGI,[21],18.1 µM
same,TGI,[52],18.4 µM
same,TGI,[22],50 µM
same,TGI,[53],45 µM
same,TGI,[23],27.4 µM
same,TGI,[24],37.8 µM
same,TGI,[25],21 µM
same,TGI,[26],16.4 µM
same,TGI,[27],16.8 µM
same,TGI,[28],16.6 µM
same,TGI,[54],17.6 µM
same,TGI,[29],17 µM
same,TGI,[30],17.2 µM
same,TGI,[55],18.5 µM
same,TGI,[31],26.7 µM
same,TGI,[56],15.6 µM
same,TGI,[32],30.2 µM
same,TGI,[33],31.6 µM
same,TGI,[57],17.2 µM
same,TGI,[34],19.2 µM
same,TGI,[35],37 µM
same,TGI,[36],15.6 µM
same,TGI,[37],18.8 µM
same,TGI,[38],29.5 µM
same,TGI,[58],24.3 µM
same,TGI,[39],17.3 µM
C1=C(c2ccccc2)O[C@H](COCc2ccccc2)C(OCc2ccccc2)[C@@H]1OCc1ccccc1 (some centres undefined),TGI,[1],> 10 µM
same,TGI,[2],> 10 µM
same,TGI,[3],> 10 µM
same,TGI,[4],> 10 µM
same,TGI,[5],> 10 µM
same,TGI,[6],> 10 µM
same,TGI,[7],> 10 µM
same,TGI,[8],> 10 µM
same,TGI,[9],> 10 µM
same,TGI,[10],> 10 µM
same,TGI,[11],> 10 µM
same,TGI,[12],> 10 µM
same,TGI,[45],> 10 µM
same,TGI,[13],> 10 µM
same,TGI,[14],> 10 µM
same,TGI,[15],> 10 µM
same,TGI,[16],> 10 µM
same,TGI,[17],> 10 µM
same,TGI,[18],> 10 µM
same,TGI,[19],> 10 µM
same,TGI,[20],> 10 µM
same,TGI,[21],> 10 µM
same,TGI,[22],> 10 µM
same,TGI,[23],> 10 µM
same,TGI,[24],> 10 µM
same,TGI,[25],> 10 µM
same,TGI,[26],> 10 µM
same,TGI,[27],> 10 µM
same,TGI,[28],> 10 µM
same,TGI,[29],> 10 µM
same,TGI,[30],> 10 µM
same,TGI,[31],> 10 µM
same,TGI,[32],> 10 µM
same,TGI,[34],> 10 µM
same,TGI,[35],> 10 µM
same,TGI,[36],> 10 µM
same,TGI,[37],> 10 µM
same,TGI,[38],> 10 µM
same,TGI,[39],> 10 µM
CCP(=O)(CC)C(Cl)(Cl)C(O)C(Cl)(Cl)Cl (centres undefined),TGI,[2],> 100 µM
same,TGI,[40],> 100 µM
same,TGI,[3],> 100 µM
same,TGI,[4],> 100 µM
same,TGI,[5],> 100 µM
same,TGI,[6],> 100 µM
same,TGI,[7],> 100 µM
same,TGI,[8],> 100 µM
same,TGI,[10],> 100 µM
same,TGI,[43],> 100 µM
same,TGI,[11],> 100 µM
same,TGI,[12],> 100 µM
same,TGI,[44],> 100 µM
same,TGI,[45],> 100 µM
same,TGI,[59],> 100 µM
same,TGI,[46],> 100 µM
same,TGI,[13],> 100 µM
same,TGI,[14],> 100 µM
same,TGI,[47],> 100 µM
same,TGI,[16],> 100 µM
same,TGI,[17],> 100 µM
same,TGI,[49],> 100 µM
same,TGI,[50],> 100 µM
same,TGI,[18],> 100 µM
same,TGI,[51],> 100 µM
same,TGI,[20],> 100 µM
same,TGI,[52],> 100 µM
same,TGI,[22],> 100 µM
same,TGI,[53],> 100 µM
same,TGI,[23],> 100 µM
same,TGI,[24],> 100 µM
same,TGI,[26],> 100 µM
same,TGI,[27],> 100 µM
same,TGI,[54],> 100 µM
same,TGI,[29],> 100 µM
same,TGI,[30],> 100 µM
same,TGI,[55],> 100 µM
same,TGI,[31],> 100 µM
same,TGI,[56],> 100 µM
same,TGI,[32],> 100 µM
same,TGI,[33],> 100 µM
same,TGI,[34],> 100 µM
same,TGI,[35],> 100 µM
same,TGI,[36],> 100 µM
same,TGI,[37],> 100 µM
same,TGI,[38],> 100 µM
same,TGI,[58],> 100 µM
same,TGI,[39],> 100 µM
COC(=O)[C@H](COC(C)(C)C)NC(=O)N[C@H](C)c1ccccc1,TGI,[2],> 100 µM
same,TGI,[40],> 100 µM
same,TGI,[3],> 100 µM
same,TGI,[4],> 100 µM
same,TGI,[5],> 100 µM
same,TGI,[6],> 100 µM
same,TGI,[7],> 100 µM
same,TGI,[8],> 100 µM
same,TGI,[41],> 100 µM
same,TGI,[42],> 100 µM
same,TGI,[9],> 100 µM
same,TGI,[10],> 100 µM
same,TGI,[43],> 100 µM
same,TGI,[11],> 100 µM
same,TGI,[12],> 100 µM
same,TGI,[44],> 100 µM
same,TGI,[45],> 100 µM
same,TGI,[59],> 100 µM
same,TGI,[46],> 100 µM
same,TGI,[14],> 100 µM
same,TGI,[47],> 100 µM
same,TGI,[48],> 100 µM
same,TGI,[16],> 100 µM
same,TGI,[17],> 100 µM
same,TGI,[49],> 100 µM
same,TGI,[50],> 100 µM
same,TGI,[18],> 100 µM
same,TGI,[19],> 100 µM
same,TGI,[51],> 100 µM
same,TGI,[20],> 100 µM
same,TGI,[21],> 100 µM
same,TGI,[52],> 100 µM
same,TGI,[22],> 100 µM
same,TGI,[53],> 100 µM
same,TGI,[23],> 100 µM
same,TGI,[24],> 100 µM
same,TGI,[25],> 100 µM
same,TGI,[26],> 100 µM
same,TGI,[27],> 100 µM
same,TGI,[28],> 100 µM
same,TGI,[54],> 100 µM
same,TGI,[29],> 100 µM
same,TGI,[30],> 100 µM
same,TGI,[55],> 100 µM
same,TGI,[31],> 100 µM
same,TGI,[56],> 100 µM
same,TGI,[32],> 100 µM
same,TGI,[33],> 100 µM
same,TGI,[57],> 100 µM
same,TGI,[34],> 100 µM
same,TGI,[35],> 100 µM
same,TGI,[36],> 100 µM
same,TGI,[37],> 100 µM
same,TGI,[38],> 100 µM
same,TGI,[58],> 100 µM
same,TGI,[39],> 100 µM

# From PubChem BioAssay (NCI)
